Measured values: patent US8895561B2, “Compounds and methods for treating candidiasis and aspergillus infections” (Cellceutix Corporation, priority 2012, dated 2014)
In brackets after ≈: the same amount, converted by molar mass. Where two headings read alike, the source gives them in different places.

What was measured:
[1] = tested on: human transformed liver HepG2 cells; test: Cytotoxicity, MTS viability assay; format: cell-based; details: Homo sapiens, HepG2; cytotoxicity
Protocol: (§1) Candida IC50s were determined by OD600 and fluorescence from vegetative cells and by MTS viability assay in the hyphal state. MICs were determined using a broth microdilution assay under standard CLSI conditions Bacteria strains: E. coli 25922 (EC), S. aureus 27660 (SA), E. faecalis 29212 (EF), P. aeruginosa 10145 (PA), and K. pneumoniae 13883 (KP). Cytotoxicity (EC50) was determined against mouse 3T3 fibroblasts, human transformed liver HepG2 cells, and human oral keratinocyte cell line, OKF6/TERT using an MTS viability assay. Candida IC50s<10 μg/mL, MICs<5 μg/mL and cytotoxicity EC50s>100 μM are indicated in green. MICs>5 μg/mL and cytotoxicity EC50s<100 μM are indicated in red.
(§2) Candida IC50s (CA) were determined by OD600 and fluorescence from vegetative cells. MICs were determined using a broth microdilution assay under standard CLSI conditions Bacteria strains: E. coli 25922 (EC), S. aureus 27660 (SA), E. faecalis 29212 (EF), P. aeruginosa 10145 (PA), and K. pneumoniae 13883 (KP). Cytotoxicity (EC50) was determined against mouse 3T3 fibroblasts and human transformed liver HepG2 cells using an MTS viability assay.
(§3) CLSI conditions Bacteria strains: clinical isolates; yeast strains: C. dubliniensis (NCPF3949), C. glabrata (ATCC 90030), C. krusei (ATCC 6258), C. parapsilosis (ATCC 22019), and C. tropicalis (ATCC 750). Cytotoxicity (EC50) was determined against mouse 3T3 fibroblasts, human transformed liver HepG2 cells, and human oral keratinocyte cell line, OKF6/TERT using an MTS viability assay.

mouse 3T3 fibroblasts = test: Cytotoxicity, MTS viability assay; format: cell-based; details: Mus musculus, NIH3T3; cytotoxicity
Protocol: as §1, §2, §3

C. albicans GDH2346 [2] = test: Candida MIC, CLSI M27-A3; format: cell-based; details: Candida albicans, GDH2346
Protocol: (§4) Candida MIC assays were determined in accordance with CLSI guidelines M27-A3 using a clinically isolated C. albicans strain, GDH2346.50% human serum was added to determine activity in the presence of serum.

[3] = tested on: C. dubliniensis (NCPF3949); test: Yeast MIC; format: cell-based; details: for MIC: Candida dubliniensis, NCPF3949
Protocol: as §4, §3

C. glabrata (ATCC 90030) = test: Yeast MIC; format: cell-based; details: for MIC: Nakaseomyces glabratus, ATCC90030
Protocol: as §4, §3

C. krusei (ATCC 6258) = test: Yeast MIC; format: cell-based; details: Pichia kudriavzevii, ATCC6258
Protocol: as §4, §3

[4] = tested on: C. parapsilosis (ATCC 22019); test: Yeast MIC; format: cell-based; details: Lodderomyces parapsilosis, ATCC22019
Protocol: as §4, §3

C. tropicalis (ATCC 750) = test: Yeast MIC; format: cell-based; details: Candida tropicalis, ATCC750
Protocol: as §4, §3

C. albicans GDH2346 [5] = test: Time kill; format: cell-based; details: FIGS. 6A and 6B
Protocol: Time kills were performed in the same manner as IC50s. At each time point yeast were removed, diluted as necessary and plated on YPD agar to determine viable CFUs.

[6] = tested on: C. albicans mature biofilms; test: Metabolic activity of mature biofilms grown at an air-liquid interface; format: cell-based
C. albicans = test: Disseminated candidiasis model, survival study; format: in vivo; details: neutropenic mice
Protocol: Mice were made neutropenic with i.p. injections of cyclophosphamide (150 mg/kg in 10 mL/kg) at 4 and 1 day before inoculation. Each animal was then inoculated by injecting 0.1 mL of inoculum of C. albicans in a tail vein. At 2 hours post-infection, the standard was administered orally and the test compound by IV. Compounds were dosed once daily for 4 days.
The kidneys were collected from four mice in Group 1 at 2 hours after infection, from four mice in Groups 2-5 at five days after infection, and from all surviving mice in the infected treatment groups. An aliquot of sterile PBS were added to each tube and the contents homogenized with a tissue homogenizer. Serial dilutions of the tissue homogenates were conducted, 0.1 mL aliquots were spread on SDA plates and the plates incubated at 35° C. overnight. The CFU/kidneys were determined from colony counts.
Survival data was analyzed using the log-rank (Mantel-Cox) test and one-way ANOVA with Tukey's Multiple Comparisons Test was performed on the yeast density and change in body weight data (GraphPad InStat version 5.04).

A. flavus (NRRL3357) = test: Anti-Aspergillus screen, CLSI M38-A, visual inhibition of growth; format: cell-based; details: screening concentration 10 μM, 24-48 hours
Protocol: (§5) The in vitro efficacy of a library of compounds was assessed for antifungal activity against A. niger (AN1), A. fumigatus ([…]) and A. flavus (NRRL3357) and compared to that of Itraconazole. For a subset of compounds selected based upon efficacy in the screening study a full MIC profile was conducted. Efficacy of test articles was determined in RPMI 1640 broth with MOPS buffered to pH7.2 in accordance with CLSI guidelines M38-A for Antifungal Susceptibility Testing of Filamentous Fungi. The method was modified by using flat well plates to allow microscopic identification of growth. The final screening concentration of each test article was 10 μM. Assay plates were incubated aerobically at 37° C. for 24-48 hours. Following incubation, plates were assessed visually (by eye and microscopically) for inhibition of growth. Inhibition was recorded at 50%, 80% and 100% inhibition compared to the positive control.

A. fumigatus (A1163) = test: as above; format: cell-based; details: screening concentration 10 μM, 24-48 hours
Protocol: as §5

A. niger (AN1) = test: as above; format: cell-based; details: screening concentration 10 μM, 24-48 hours
Protocol: as §5

[7] = Table 5, read-out: MIC C. albicans
[8] = Table 5, read-out: MIC C. dubliniensis
[9] = Table 5, read-out: MIC C. glabrata
[10] = 50% human serum, read-out: MIC C. albicans GDH2346 + 50% HS
[11] = without serum, read-out: MIC C. albicans GDH2346
[12] = 50% human serum, read-out: MIC C. dubliniensis + 50% HS
[13] = without serum, read-out: MIC C. dubliniensis
[14] = 50% human serum, read-out: MIC C. glabrata + 50% HS
[15] = without serum, read-out: MIC C. glabrata

Row | Compound | IC50 [1] | IC50 (mouse 3T3 fibroblasts) | MIC (C. albicans GDH2346 [2]; [7]) | MIC [3, 8] | MIC (C. glabrata (ATCC 90030); [9]) | MIC (C. krusei (ATCC 6258)) | MIC [4] | MIC (C. tropicalis (ATCC 750)) | killing kinetics (C. albicans GDH2346 [5]) | MIC (C. albicans GDH2346 [2]; [10]) | MIC (C. albicans GDH2346 [2]; [11]) | MIC [3, 12] | MIC [3, 13] | MIC C. dubliniensis ([3]; Table 5) | MIC (C. glabrata (ATCC 90030); [14]) | MIC (C. glabrata (ATCC 90030); [15]) | MIC C. glabrata (C. glabrata (ATCC 90030); Table 5) | further results
1 | NCCSc1cc(SCCN)c(C(F)(F)F)cc1NC(=O)c1cc(C(=O)Nc2cc(C(F)(F)F)c(SCCN)cc2SCCN)ncn1 [Compound 100] | > 1000 µM | 439 µM | 4 to 8 µg/mL (≈ 5.3 to 10.6 µM) | 8 µg/mL (≈ 10.6 µM) | 16 µg/mL (≈ 21.2 µM) | 8 µg/mL (≈ 10.6 µM) | 8 µg/mL (≈ 10.6 µM) | 4 µg/mL (≈ 5.3 µM) | cidal activity with rapid killing kinetics | – | – | – | – | – | – | – | – | metabolic activity in mature biofilms [6]: significant reduction of metabolic activity
2 | NCCCOc1cc(OCCCN)cc(-c2ccc3c(c2)c2cc(-c4cc(OCCCN)cc(OCCCN)c4)ccc2n3CCCN)c1 [Compound 135] | 885 µM | 436 µM | 4 µg/mL (≈ 5.98 µM) | – | – | 16 µg/mL (≈ 23.9 µM) | 2 µg/mL (≈ 2.99 µM) | 2 to 4 µg/mL (≈ 2.99 to 5.98 µM) | cidal activity with rapid killing kinetics | 2 µg/mL | 4 µg/mL (≈ 5.98 µM) | 1 µg/mL | 4 µg/mL (≈ 5.98 µM) | 4 µg/mL (≈ 5.98 µM) | 2 µg/mL | 2 µg/mL (≈ 2.99 µM) | 2 µg/mL (≈ 2.99 µM) | survival over a 14-day period, p between Fluconazole and compound (C. albicans; 10 mg/kg IV once daily for 4 days): < 0.01; survival over a 14-day period, p between Fluconazole and compound (C. albicans; 15 mg/kg IV once daily for 4 days): < 0.01
3 | N=C(N)N1CCN(c2ccc(-c3cc(-c4ccc(N5CCN(C(=N)N)CC5)cc4)ncn3)cc2)CC1 [Compound 136] | 453 µM | 311 µM | 4 µg/mL (≈ 8.25 µM) | – | – | 32 µg/mL (≈ 66 µM) | 4 to 8 µg/mL (≈ 8.25 to 16.5 µM) | 4 to 8 µg/mL (≈ 8.25 to 16.5 µM) | – | 2 µg/mL | 4 µg/mL (≈ 8.25 µM) | 2 µg/mL | 8 µg/mL (≈ 16.5 µM) | 8 µg/mL (≈ 16.5 µM) | 1 µg/mL | 4 µg/mL (≈ 8.25 µM) | 4 µg/mL (≈ 8.25 µM) | inhibition at 10 µM (A. flavus (NRRL3357)): 100%; inhibition at 10 µM (A. fumigatus (A1163)): 100%; inhibition at 10 µM (A. niger (AN1)): 100%
4 | NCCCOc1cc(-c2cn(-c3cc(OCCCN)cc(OCCCN)c3)nn2)cc(-c2cn(-c3cc(OCCCN)cc(OCCCN)c3)nn2)c1 [Compound 137] | 182 µM | 83 µM | 8 µg/mL (≈ 11 µM) | 8 to 16 µg/mL (≈ 11 to 21.9 µM) | 8 µg/mL (≈ 11 µM) | 8 µg/mL (≈ 11 µM) | 4 to 8 µg/mL (≈ 5.48 to 11 µM) | 4 µg/mL (≈ 5.48 µM) | – | – | – | – | – | – | – | – | – | –
